Experiment [1] deals with human liver cancer Hep-G2 cells. In words: Inhibition rate on human liver cancer Hep-G2 cells (CCK-8). Format: cell-based. Conditions: 24 h; for inhibition rate: 3 mg/mL drug solutions. The method, then: A cryopreservation tube containing liver cancer Hep-G2 cells was taken out from a liquid nitrogen tank, quickly placed in a water bath at 38-39° C., and continuously shaken to be fully thawed within 1 min. The cryopreservation tube was centrifuged at 800 r/min for 9 min, and sprayed with 75% alcohol on the outside thereof, and then put into a ultra-clean table. The resulting supernatant was sucked and discarded. 1 ml of DMEM complete medium was added, and a mixture of the cells and the DMEM complete medium was blown evenly, and then the cells were transferred to a 25 ml culture dish. 6-8 ml of DMEM complete medium was added, and a mixture of the cells and the DMEM complete medium was gently blown evenly, and put into a constant temperature incubator at 37° C. with 5% CO2.
The old medium in the item 2.1 was sucked out. 2 ml of PBS buffer solution was added, and the cells were washed by gently shaking the culture flask. The PBS buffer solution was sucked out to remove the loose, dead and senescent cells and their metabolic wastes, and the cells were washed for 2-3 times. 2 ml of trypsin was added, and the culture dish was gently shaken for 30 s. After the trypsin was sucked out, the culture dish was put into the incubator for full digestion for 3 min, and 2 ml of fresh DMEM complete culture was added. The cells were gently blown and dispersed into individual cells under a microscope, and then 6-8 ml of fresh DMEM complete medium was added and the cells were incubated in a constant temperature incubator.
2 mL trypsin was added into the cells cultured in the item 2.2 in the logarithmic growth phase and the cells were digested for 30 s. After the trypsin was sucked out, the culture dish was placed into the incubator for full digestion for 3 min, and 2 mL of fresh medium was added. The cells were gently blown to disperse the cells into individual cells under the microscope. 10 μL of cell suspension and 10 μL of 0.4% Trypan blue staining solution were mixed well to fully stain the cells. 10 μL of the stained cell suspension was added to a cell counting plate, and the number of cells was counted by a fully automatic cell counter. The cell suspension was diluted to 2×10^5 cells/mL with a DMEM complete medium. 100 μL of cell suspension was sucked with a multichannel pipette and seeded into a 96-well plate and incubated in a constant temperature incubator at 37° C. with 5% CO2 for 24 h.
30 mL of DMEM complete medium was accurately measured, 30 μL of DMSO was added, and uniform mixing was conducted to prepare 0.1% DMSO medium. […] The kaempferol solution and the methyl ester solution having the above concentrations were uniformly mixed to prepare drug solutions having the desired ratio based on the mass ratio of kaempferol to methyl ester being 1:1, 1:2, 1:3, 1:4, 1:5, 5:1, 4:1, 3:1 and 2:1, 400 μL of each drug solution. 1 mg/mL of 5-fluorouracil solution was diluted to a concentration of 800, 600, 400, 200, 100, 50, 25 μg/mL, respectively, 400 μL of each drug solution.
The old medium in the 96-well plate in the item 2.3 was sucked out, and 100 μL of PBS buffer solution was added to each well to remove the loose, dead and senescent cells and their metabolic wastes. After that, the PBS buffer solution was sucked out. 100 μL of the prepared drug solution was added to each well, 3 wells in parallel. A negative control was set up, in which an equal volume of DMEM complete medium containing 0.1 vol % DMSO was added to each well, 3 wells in parallel. A blank control was a DMEM complete medium containing 0.1 vol % DMSO free of cells, 3 wells in parallel. The cells were incubated for 24 h in a constant temperature incubator at 37° C. with 5% CO2.
The DMEM complete medium containing 0.1 vol % DMSO in the drug solutions and negative control in the 96-well plate in the item 2.5 were sucked out. […]

Experiment [2] concerns Solid tumor cell line S180. Nature of the experiment: In-vivo anti-tumor experiment after S180 tumor inoculation in mice. Conditions: 9 days; for relative tumor weight mean ± SD: S180 tumor-bearing ICR mice; for inhibition rate: vs model group. Set-up: species or system ICR mice. The method, then: Solid tumor cell line S180 cryopreservation tube were taken out from a liquid nitrogen tank and quickly placed into water at 37° C. with occasional shaking. After cryopreserved cell mother liquor was thawed, the lid edge of the cryopreservation tube was wiped with an alcohol swab. The thawed cell liquor was injected intraperitoneally into the peritoneal cavities of ICR mice by a syringe. The mice were kept at room temperature of 25±5° C., humidity of 60±10%, natural light, and free to ingest food and water. After about one week, ascites in the peritoneal cavities of the ICR mice were sucked by a syringe and injected into the peritoneal cavities of new ICR mice at a dose of 0.5 ml per mouse for passage for standby application.
ICR class II mice, weighing about 18-22 g. Feeding conditions: room temperature of 25±5° C., humidity of 60±10%, natural light, free intake of water, and all mice were kept in the feeding environment for adaptive feeding for four days, fasted for 12 h before the experiment, free intake of water.
(§1) The experimental instruments were placed in a clean table and sterilized for about 30 min by turning on a UV lamp. The mice that were injected with ascites (about one week) were sacrificed by cervical dislocation, and abdomens of the mice were wiped with an alcohol swab. A 20 ml syringe was selected to suck the ascites (milky white is preferred) from the mice. The sucked ascites were placed in a sterile vial, and the vial was placed in a small box with ice. A certain amount of ascites was sucked onto a counting plate and placed under a microscope for counting, and the number of the cells was 10^7 as a base for tumor inoculation (1:2) and passage (1:5).
(§2) The adaptively fed ICR class II male mice were taken, and wiped with an alcohol swab on the armpit areas of the right forelimbs. The axillary cavities of the right forelimbs of the mice were inoculated with diluted mice ascite cell (10^7 cells) suspension at 0.2 ml per mouse. After tumor inoculation, the mice were fed and watered freely. One hour later, the drug was administered by gavage.
(§3) 168 ICR class II male mice with a weight of 18-22 g were used. The mice were kept under the conditions of the item 2.2 for adaptive feeding for four days before the experiment. After four days, the mice were weighed and their autonomy was measured. […] Each mouse was inoculated with S180 tumor according to the method in the item 2.3, and the drug was administered by gavage after inoculation.
(§4) A appropriate amount of test samples were weighed precisely, and prepared into test sample solutions having the desired concentrations by using a 5 vol % ethanol aqueous solution as a solvent, i.e.: the effective parts of 5 mg/kg, 10 mg/kg and 20 mg/kg correspond to the test sample solutions of the groups of the effective part 5, effective part 10, and effective part 20, respectively; E-6-O-(p-coumaroyl)scandoside methyl ester of 2.5 mg/kg, 5 mg/kg, 10 mg/kg, and 20 mg/kg correspond to the test sample solutions of the groups of methyl ester 2.5, methyl ester 5, methyl ester 10 and methyl ester 20, respectively; kaempferol-3-O-[2-O-(6-O-E-feruloyl)-β-D-glucopyranosyl]-β-D-galactopyranose of 2.5 mg/kg, 5 mg/kg, 10 mg/kg and 20 mg/kg correspond to the test sample solutions of the groups of kaempferol 2.5, kaempferol 5, kaempferol 10 and kaempferol 20, respectively. […] Each mouse was administered by gavage at a dose of 0.2 ml/10 g. During the administration period, the mice were fed at 3 g/mouse and ingested water and food freely. All mice were continuously administered for 9 days, and sacrificed by decapitation on day 10. Blood, tumor, liver, spleen, and thymus of mice were collected. The blood collected was placed in a low temperature environment and sent out for blood check. The weight of the tumor, liver, spleen, and thymus and the size of the tumor were recorded.

The nature of experiment [3]: Spleen and thymus weight and blood count of S180 tumor-bearing mice. Format: in vivo, ICR mice. The conditions noted are these: for relative spleen weight compared with model group: FIG. 5; for relative thymus weight compared with model group: FIG. 6; for number of leukocytes compared with model group: FIG. 7; for percentage of lymphocytes compared with model group: FIG. 8. How it is done: as §3, §4
(§5) The recorded results were expressed as mean plus or minus standard deviation (X±SD), and the data were analyzed by using statistical software SPSS 11.5 software.

In experiment [4] the test system is Solid tumor cell line S180. Nature of the experiment: In-vivo anti-tumor experiment of E-6-O-(p-coumaroyl)scandoside methyl ester and its metabolite p-coumaric acid (S180 tumor). The conditions noted are these: 10 mg/kg by gavage, 9 days. Set-up: species or system ICR mice. How it is done: as §1, §2
30 ICR class II male mice with a weight of 18-22 g were used. The mice were adaptively fed for four days under the conditions of the item 2.2 before the experiment. After four days, the mice were weighed and their autonomy was measured. The ICR mice were randomly divided into three groups, namely: a model group, methyl ester 10, p-coumaric acid 10, 10 mice in each group. Each mouse was inoculated with S180 tumor according to the method of the item 2.3, and the drug was administered by gavage after inoculation.
The appropriate amount of test samples were weighed precisely and prepared into test sample solutions having the desired concentrations by using a 5 vol % ethanol aqueous solution as a solvent, i.e.: E-6-O-(p-coumaroyl)scandoside methyl ester of 10 mg/kg; p-coumaric acid of 10 mg/kg. […] The blank group was given a solvent, the positive drug control group was given the cyclophosphamide solution, and the other groups were given the corresponding drugs and doses. Each mouse was administered by gavage at a dose of 0.2 ml/10 g. The mice were fed at 3 g/mouse and ingested water and food freely during the administration period. All mice were continuously administered for 9 days and sacrificed by decapitation on day 10. Blood, tumor, liver, spleen and thymus of the mice were collected. The blood obtained was placed in a low-temperature environment and sent out for blood check. The weight of the tumor, liver, spleen and thymus and the size of the tumor were recorded.
as §5

Usually inhibition stands for how much of the control response was suppressed. A high value points to strong suppression.

“Also recorded” adds a separate entry of the source. Marks after values point to notes of the source that are not given here.

The compound `O=c1[nH]cc(F)c(=O)[nH]1` [5-Fluorouracil, 5-fluorouracil] registered an inhibition at 25 µg/mL in experiment [1] (Homo sapiens, HepG2, 25 μg/mL) of 7.34%. Besides, the inhibition at 50 µg/mL in experiment [1] (Homo sapiens, HepG2, 50 μg/mL) is 11.3%. In experiment [1] (Homo sapiens, HepG2, 100 μg/mL), this compound came in with an inhibition at 100 µg/mL of 13.9%. Also, at 200 µg/mL the inhibition in experiment [1] (Homo sapiens, HepG2, 200 μg/mL) was 17.8%. In experiment [1] (Homo sapiens, HepG2, 400 μg/mL), this compound returned an inhibition at 400 µg/mL of 39.5%. The compound further gave an inhibition at 600 µg/mL in experiment [1] (Homo sapiens, HepG2, 600 μg/mL) of 56.1%. In addition, the inhibition at 800 µg/mL in experiment [1] (Homo sapiens, HepG2, 800 μg/mL) is 61.5%. Moreover, the inhibition at 1000 µg/mL in experiment [1] (Homo sapiens, HepG2, 1000 μg/mL) was found to be 68%.
As to `O=P1(N(CCCl)CCCl)NCCCO1` (stereo not shown) [Positive control, Cyclophosphamide, reference compound], in experiment [2] (20 mg/kg by gavage), the “relative tumor weight mean ± SD” value is recorded as 3.56 ± 0.77* 10^−2 and the inhibition rate stood at 57.19%. For the same compound, in experiment [3] (20 mg/kg), the “number of erythrocytes compared with model group” value is on record as “lower”, the “relative spleen weight compared with model group” value is “decrease; also recorded: lower”, the “relative thymus weight compared with model group” value is given as “increase” and the “number of leukocytes compared with model group” value is “significant decrease; also recorded: lower”. For the same compound, the “percentage of lymphocytes compared with model group” value in experiment [3] (20 mg/kg) is reported as “increase”.
Regarding `O=C(O)/C=C/c1ccc(O)cc1` [p-coumaric acid, reference compound], the “relative tumor weight mean ± SD” value in experiment [4] (S180 tumor-bearing ICR mice) was 6.07 ± 2.91* 10^−2. Moreover, in experiment [4] (vs model group), the inhibition rate was found to be 17.20%.
As for “kaempferol-3-O-[2-O-(6-O-E-feruloyl)-β-D-glucopyranosyl]-β-D-galactopyranose”, the “relative tumor weight mean ± SD” value is 7.01 ± 1.56 10^−2 in experiment [2] (2.5 mg/kg by gavage), 4.49 ± 1.95 10^−2 in experiment [2] (5 mg/kg by gavage), 6.04 ± 2.78 10^−2 in experiment [2] (10 mg/kg by gavage) and 5.59 ± 1.96 10^−2 in experiment [2] (20 mg/kg by gavage). Moreover, the inhibition rate in experiment [2] (2.5 mg/kg by gavage) worked out at 15.76%; in experiment [2] (5 mg/kg by gavage), 45.96%; in experiment [2] (5 mg/kg by gavage, listed as kaempferol-3-O-[2-O-(6-O-E-feruloyl)-β-D-glucopyranosyl]-β-D-galactopyranose), 45.96%; in experiment [2] (10 mg/kg by gavage), 27.36%; in experiment [2] (20 mg/kg by gavage), 32.75%; in experiment [1] (1st measurement), 18.7%. For the same compound, the inhibition rate in experiment [1] (2nd measurement) amounted to 12.07%; in experiment [1] (3rd measurement) it was 19.28%. Moreover, in experiment [2] (dose with the highest inhibition rate, gavage), the “best dose for tumor inhibition” value worked out at 5 mg/kg. In addition, the “relative spleen weight compared with model group” value in experiment [3] (5 mg/kg) is “increase”. The “relative thymus weight compared with model group” value in experiment [3] (5 mg/kg) is on record as “increase”. Also, the “number of leukocytes compared with model group” value in experiment [3] (5 mg/kg) is reported as “significant decrease”. Moreover, the “percentage of lymphocytes compared with model group” value in experiment [3] (5 mg/kg) is recorded as “increase”.
